# Experimental data from patent US20260273028A1, “PEROXIDASE COMPOSITIONS CONTAINING IMPROVED ENHANCING AGENTS” (FLEN HEALTH PHARMA NV, priority 2022, published 2026).
# Assays:
# Format in all cases: cell-based
# [1] = system: Staphylococcus aureus ATCC® 6538™; assay: MBC determination, broth microdilution with CFU enumeration; conditions: S. aureus
# Protocol: The minimal bactericidal concentration (MBC) is defined as the lowest concentration of an antimicrobial agent that results in a complete killing of the microbial population (determined via standard CFU enumeration techniques) after overnight incubation. This endpoint measurement is used, together with the MIC (see above), to define the microbial susceptibility towards an antimicrobial agent. Here, the antimicrobial agent is a combination of the natural enzymes GOX+LPO.
# To determine the MBC of the described combinations, a classical broth microdilution assay combined with standard CFU enumeration techniques was used to determine the susceptibility of a series of microbes commonly detected in infected wounds, including (a) the Gram-positive bacterium Staphylococcus aureus ATCC® 6538™ (results shown below), (b) the Gram-negative bacterium Pseudomonas aeruginosa ATCC®9027™ (results shown below), (c) the yeast Candida albicans ATCC®10231™ (results shown below), and (d) the fungus Aspergillus niger ATCC®16404™ (results shown below). In brief, the broth microdilution assay was set up as previously described (see 2.1). After incubation, the MBC was determined by investigating the presence of viable microorganisms at the MIC and following higher concentrations (MICx2, MICx4, and so on) using standard CFU enumeration techniques. For each combination evaluated, this test was repeated at least 5 times. The collected data were further analyzed in MS Excel. Mean concentration data (expressed as log CFU/ml) were visualized in a table format in which the MBC was highlighted.
# [2] = system: Aspergillus niger ATCC®16404™; assay: Absolute microbial counts in function of enzyme solution concentration; conditions: 0.005%-0.000156% (v/v) GOX+LPO
# From the text: (§1) Absolute microbial counts in function of concentration of the antimicrobial agent tested are useful to monitor the bactericidal and fungicidal efficacy of that agent.
# (§2) To determine the absolute number of live microorganisms in function of different enzyme solution concentrations tested, a classical broth microdilution assay combined with standard CFU enumeration techniques was used to determine the susceptibility of a series of microbes commonly detected in infected wounds, including (a) the Gram-positive bacterium Staphylococcus aureus ATCC® 6538™ (results shown below), (b) the Gram-negative bacterium Pseudomonas aeruginosa ATCC®9027™ (results shown below), (c) the yeast Candida albicans ATCC®10231™ (results shown below), and (d) the fungus Aspergillus niger ATCC®16404™ (results shown below). In brief, the broth microdilution assay was set up as previously described (see 2.1). After incubation, the absolute microbial count at the MIC and following higher concentrations (MICx2, MICx4, and so on) was determined using standard CFU enumeration techniques. For each combination evaluated, this test was repeated at least 5 times. The collected data were further analyzed in MS Excel and expressed as log CFU/ml. Mean results were plotted in function of enzyme solution concentration.
# [3] = system: Pseudomonas aeruginosa ATCC®9027™; assay: as above; conditions: for reduction in absolute P. aeruginosa counts compared to reference and guaiacol solution: 0.005%-0.0000391% (v/v) GOX+LPO
# From the text: as §1, §2
# [4] = system: C. albicans (ATCC®10231™); assay: Microbial challenge testing in alginogel with GOX+LPO; conditions: for reduction in absolute C. albicans counts compared to guaiacol in the same concentration: alginogel with GOX+LPO, enhancer 0.0005%; for antimicrobial activity of enhancing candidate only against C. albicans: alginogel without enzymes, highest concentration tested; for reduction in absolute C. albicans counts compared to reference (enzymes only): alginogel, 0.0075% GOX+LPO
# Protocol: (§3) To determine the ability of an antimicrobial agent to elicit an antimicrobial preserving efficacy in a gel environment, a microbiological challenge test can be performed. Here, the antimicrobial agent is a combination of the natural enzymes GOX+LPO. […] Microbial challenge testing was performed according to the method described in the European Pharmacopoeia current version chapter 5.1.3 ‘Efficacy of antimicrobial preservation’, but with adapted time points (0, 10, 20, 30, 40, 50, 60, 70 and 80 min instead of 0, 2, 7, 14 and 28 days). In brief, for every enhancing agent to be evaluated, a lab-scale alginogel (based on the Flaminal® formulation, but without the original enhancer guaiacol) including 0.0075% GOX+LPO (1:1) was prepared according to standard practices. Enhancing agents were added to the alginogel in a final concentration ranging from 0.01 to 0,00025% (v/w). As a reference, an alginogel including 0.0075% GOX+LPO (1:1) without the addition of any enhancing agent was included (designated as: enzymes only). As a control, an alginogel without both GOX+LPO (1:1) enzyme solution and enhancing agent (designated as: empty gel) as well as an alginogel only containing the enhancing agent only (designated as: enhancing candidate only) were included. After preparation, a homogenous sample of 10 g was transferred into a 50 ml conical tube for each alginogel to be evaluated and microorganism to be tested. For each test microorganism, including S. aureus (ATCC®6538™), P. aeruginosa (ATCC®9027™), C. albicans (ATCC®10231™) and A. niger (ATCC®16404 ™), a microbial suspension of about 10^8 CFU/ml was prepared in sterile diluent (buffered sodium chloride-peptone solution). Then, the 50 ml conical tubes containing the alginogel samples to be evaluated were inoculated with 100 μl of the designated inoculum. At the start (time point 0) and after 0, 10, 20, 30, 40, 50, 60, 70 and 80 min, the number of viable microorganisms per gram product (expressed as CFU/g) was determined by transferring a sample of 0.5 g of the product into a 15 ml conical tube containing 4.5 ml of sterile diluent and applying general dilution and plate count techniques. For each combination evaluated, this test was repeated at least 1-3 times. The collected data were further analyzed in MS Excel. Mean absolute counts (expressed as log CFU/g) were visualized in a graph.
# A. niger (ATCC®16404 ™) = assay: as above; conditions: for reduction in absolute A. niger counts compared to guaiacol in the same concentration: alginogel with GOX+LPO; for antimicrobial activity of enhancing candidate only against A. niger: alginogel without enzymes, highest concentration tested; for reduction in absolute A. niger counts compared to reference (enzymes only): alginogel, 0.0075% GOX+LPO
# Protocol: as §3
# [5] = system: P. aeruginosa (ATCC®9027™); assay: as above; conditions: for reduction in absolute P. aeruginosa counts compared to guaiacol in the same concentration: alginogel with GOX+LPO, enhancer 0.0005%; for antimicrobial activity of enhancing candidate only against P. aeruginosa: alginogel without enzymes, highest concentration tested; for reduction in absolute P. aeruginosa counts compared to reference (enzymes only): alginogel, 0.0075% GOX+LPO
# Protocol: as §3
# S. aureus (ATCC®6538™) = assay: as above; conditions: for reduction in absolute S. aureus counts compared to guaiacol in the same concentration: alginogel with GOX+LPO, enhancer 0.0005%; for antimicrobial activity of enhancing candidate only against S. aureus: alginogel without enzymes, highest concentration tested; for reduction in absolute S. aureus counts compared to reference (enzymes only): alginogel, 0.0075% GOX+LPO
# Protocol: as §3
# The purpose of the hereby described experiment was to compare the efficacy of antimicrobial activity enhancement of the GOX+LPO (1:1) enzyme combination by ethanolamine and proline in a microbial challenge test using S. aureus. The test was set up as described in the section on ‘challenge testing’ in Example 2.4. The test was repeated at least 3 times.
# The purpose of the hereby described experiment was to compare the efficacy of antimicrobial activity of the GOX+LPO (1:1) enzyme combination in the presence of potassium chloride/potassium bromide and potassium iodide. A microbial challenge test using S. aureus was performed. The test was set up as described in the section on ‘challenge testing’ in Example 2.4.
# [6] = enhancer 0,1%, 0,005%-0.000625% (v/v) GOX+LPO
# [7] = enhancer 1%, 0,005%-0.000156% (v/v) GOX+LPO
SMILES,reduction in absolute A. niger counts compared to reference ([2]; enhancer 1-0.01%),reduction in absolute C. albicans counts compared to guaiacol in the same concentration [4],antimicrobial activity of enhancing candidate only against C. albicans [4],reduction in absolute C. albicans counts compared to reference (enzymes only) ([4]; enhancer 0.0025%),reduction in absolute A. niger counts compared to guaiacol in the same concentration (A. niger (ATCC®16404 ™); enhancer 0.0005%),antimicrobial activity of enhancing candidate only against A. niger (A. niger (ATCC®16404 ™)),"reduction in absolute A. niger counts compared to reference (enzymes only) (A. niger (ATCC®16404 ™); enhancer 0,0025-0,0005%)",reduction in absolute P. aeruginosa counts compared to guaiacol in the same concentration [5],antimicrobial activity of enhancing candidate only against P. aeruginosa [5],reduction in absolute P. aeruginosa counts compared to reference (enzymes only) ([5]; enhancer 0.00125-0.0005%),reduction in absolute P. aeruginosa counts compared to reference (enzymes only) ([5]; enhancer 0.0025%),reduction in absolute S. aureus counts compared to guaiacol in the same concentration (S. aureus (ATCC®6538™)),antimicrobial activity of enhancing candidate only against S. aureus (S. aureus (ATCC®6538™)),reduction in absolute S. aureus counts compared to reference (enzymes only) (S. aureus (ATCC®6538™); enhancer 0.00125-0.0005%),reduction in absolute S. aureus counts compared to reference (enzymes only) (S. aureus (ATCC®6538™); enhancer 0.0025%),"reduction in absolute P. aeruginosa counts compared to reference [3, 6]","reduction in absolute P. aeruginosa counts compared to reference [3, 7]","reduction in absolute C. albicans counts compared to reference (enzymes only) ([4]; enhancer 0,00125-0,0005%)",other results
"N[C@@H](CO)C(=O)O [Serine, serine]",stronger reduction,faster complete reduction,no antimicrobial activity,immediate entire reduction,faster complete reduction,no antimicrobial activity,faster complete reduction,faster complete reduction,no antimicrobial activity,faster complete reduction,immediate entire reduction,faster complete reduction,no antimicrobial activity,faster complete reduction,immediate entire reduction,–,–,–,MBC: GOX+LPO enzyme solution needed ([1]; enhancer 0.0025%-0.00125%): 0.0000391 % (v/v); increase in MBC compared to reference ([1]; enhancer 0.0025%-0.00125%): 4 ×; increase in MBC compared to the enhancing molecule guaiacol ([1]; enhancer 0.0025%-0.00125%): 2 ×; MBC: GOX+LPO enzyme solution needed ([1]; enhancer 10%-0.005%): 0.0000391 % (v/v); increase in MBC compared to reference ([1]; enhancer 10%-0.005%): 4 ×; increase in MBC compared to the enhancing molecule guaiacol ([1]; enhancer 10%-0.005%): 2 ×; reduction in absolute P. aeruginosa counts compared to reference and guaiacol solution ([3]; enhancer 0.0025-0.00125%): stronger reduction; reduction in absolute P. aeruginosa counts compared to reference and guaiacol solution ([3]; enhancer 0.01-0.005%): stronger reduction; reduction in absolute C. albicans counts compared to reference (enzymes only) ([4]; enhancer 0.00125%): faster complete reduction
"NC(=O)CC[C@H](N)C(=O)O [Glutamine, glutamine]",stronger reduction,faster complete reduction,no antimicrobial activity,immediate entire reduction,–,no antimicrobial activity,–,faster complete reduction,no antimicrobial activity,faster complete reduction,immediate entire reduction,faster complete reduction,no antimicrobial activity,faster complete reduction,immediate entire reduction,stronger reduction,stronger reduction,faster complete reduction,MBC: GOX+LPO enzyme solution needed ([1]; enhancer 0.1%): 0.0000391 % (v/v); increase in MBC compared to reference ([1]; enhancer 0.1%): 4 ×; increase in MBC compared to the enhancing molecule guaiacol ([1]; enhancer 0.1%): 2 ×; reduction in absolute A. niger counts compared to guaiacol in the same concentration (A. niger (ATCC®16404 ™); enhancer 0.0025%): faster complete reduction; reduction in absolute A. niger counts compared to reference (enzymes only) (A. niger (ATCC®16404 ™); enhancer 0.0025%): faster complete reduction
"CC[C@H](C)[C@H](N)C(=O)O [Isoleucine, isoleucine]",–,faster complete reduction,no antimicrobial activity,immediate entire reduction,faster complete reduction,no antimicrobial activity,faster complete reduction,faster complete reduction,no antimicrobial activity,faster complete reduction,immediate entire reduction,faster complete reduction,no antimicrobial activity,faster complete reduction,immediate entire reduction,stronger reduction,stronger reduction,faster complete reduction,MBC: GOX+LPO enzyme solution needed ([1]; enhancer 0.00125%): 0.0000391 % (v/v); increase in MBC compared to reference ([1]; enhancer 0.00125%): 4 ×; increase in MBC compared to the enhancing molecule guaiacol ([1]; enhancer 0.00125%): 2 ×; MBC: GOX+LPO enzyme solution needed ([1]; enhancer 0.005%): 0.0000391 % (v/v); increase in MBC compared to reference ([1]; enhancer 0.005%): 4 ×; increase in MBC compared to the enhancing molecule guaiacol ([1]; enhancer 0.005%): 2 ×; reduction in absolute A. niger counts compared to reference ([2]; enhancer 1-0.005%): stronger reduction
